Our source for the melting point values is a melting point compilation (Tetko et al.; mined from patent text by program, amines drawn as free bases though some values may be those of a salt).

What is called melting point is the temperature, or range, at which the solid turns liquid. `O=C(O)/C=C/c1ccc(C(c2cc(F)ccc2F)S(=O)(=O)c2ccc(Cl)cc2)nc1` (stereo not drawn) had a melting point of 236 to 238 °C.
Turning to `CN1C(=O)Cc2cscc2S1(=O)=O`, the melting point was 148 to 149 °C.
`COC1=C(OCCCCCc2ccccc2)C2OC2(C=O)C=C1` (stereo not drawn) yielded a melting point of 65 to 67 °C.
The compound `COc1ccc(C(C)(O)CO)cc1CN[C@H]1C2CCN(CC2)[C@H]1C(c1ccccc1)c1ccccc1` (stereo partly drawn) showed a melting point of 65.5 to 82.8 °C.
The figure for `Fc1ccc2[nH]nc(-c3ccccc3)c2c1` is 124 to 125 °C; for `CCC(=O)NC1=NN(c2ccccc2)C(c2ccccc2)C1` (stereo not drawn) it is 148 °C.
The compound `c1ccc2oc(NCc3ccncc3)nc2c1` returned a melting point of 148 °C.
In the case of `CCC1(CC)C(=O)N(C(C)(C)C)CC(C)(C)N1OC(C)(C)C#N`, the melting point was in the range of 68 to 71 °C.
With `CC(C)c1cc(C(C)C)c(NC(=O)CN2CCN(CCSc3nc4ccccc4o3)CC2)c(C(C)C)c1`, the melting point is 160 to 163 °C.
For `c1ccc(Oc2ccc(C3(Cn4cncn4)OCCO3)cc2)cc1`, the melting point lay within 100 to 102 °C.
As for `CCC(CCSc1cc(OC)c(O)c(OC)c1)(c1cccs1)N(C)C` (stereo not drawn), the melting point fell in the range of 78 to 80 °C.
Take `CC1(C)CCC2(Cc3ccc(Cl)cc3)OC2C1=O` (stereo not drawn): the melting point lay in the range of 69 to 70 °C.
On to `C=CCOC(=O)Nc1cc(-c2cccc(Cl)c2)sc1C(=O)OC`, for which the melting point is 101 to 103 °C.
In the case of `Cc1ccc2c(c1)N=C(N1CCN(C)CC1)c1cc(Br)cc3c1N2CC3`, the melting point lay within 187 to 189 °C.
The compound `CN(C)Cc1ccc(CSCCNC2=NS(=O)(=O)N=C2N)o1` gave a melting point of 156 to 158 °C.
For `CCN(CC)CCNC(=O)c1ccc(N(S(C)(=O)=O)S(C)(=O)=O)cc1OC`, the melting point amounted to 144 °C.
`CCSc1cc(=O)c2c(O)cc(O)c([C@H]3CCN(C)C[C@H]3O)c2o1` (relative stereo) had a melting point of 104 °C.
To `Cc1nnc(-c2ccccc2O)o1` belongs 74 to 76 °C.
`N#Cc1cccc(-n2c(=O)c(C(=O)Cc3ccccc3)c(O)c3cccnc32)c1` registered a melting point of 216 to 218 °C.
In the case of `N[C@@H](CO)C(=O)Nn1cccc1`, the melting point was 135 to 137 °C.
Regarding `Cn1c(C(F)(F)F)cc(=O)n(-c2cc(OC(=O)NCC3CCCCC3)c(Cl)cc2F)c1=O`, the melting point is 132 to 135 °C.
The figure for `Cc1ccc(=NC(=O)C(F)(F)F)n(Cc2ccc(Cl)s2)c1` is 170 °C; for `O=S1(=O)c2ccc(O)cc2Oc2cc(F)ccc21` it is 258 to 260 °C; for `CCCCc1c(Cc2ccc(-c3ccccc3-c3nnn[nH]3)cc2)c(C(=O)O)nn1CCCC` it is 108 °C.
The compound `O=C(Nc1cccc2c(-n3c(-c4cccnc4)nc4ccccc43)ccnc12)c1c(Cl)cccc1Cl` showed a melting point of 203 to 204 °C.
In turn, `COC1=CC(=O)C2=C(CC=CC2)C1=O` yielded a melting point of 172 °C.
In turn, `CC(C)n1nc(-c2sc(NCCN3CCCCC3)nc2-c2ccccc2)ccc1=O` came in with a melting point of 165 to 166 °C.
In turn, `CCN(CC)CCCNC(=O)C1=C(O)c2ccccc2S(=O)(=O)N1C` displayed a melting point of 107 to 110 °C.
`O=C(Nc1ccc(I)cc1)c1ccncc1`: the melting point was in the range of 245 to 250 °C.
`O=c1n(CCN2CCN(c3ccc4cc[nH]c4c3)CC2)c2ccccc2n1C1=CCCCC1`: the melting point was 171 to 173 °C.
`CC1Cc2cc(O)c(Cl)c(Cl)c2C1=O` (stereo not drawn) came in with a melting point of 224 to 230 °C.
With `Cc1nc(C(=O)NS(=O)(=O)c2c(C)csc2C(=O)OC(C)C)no1`, the melting point amounted to 142 °C.
The compound `N#Cc1c(N2CCCC2)c(F)cc2c(=O)c(C(=O)O)cn(C3CC3)c12` returned a melting point of 274 to 276 °C.
`O=C(Nc1ccc(-n2nc(C(F)(F)F)cc2C(F)(F)F)cc1)C1CCCCCC1` yielded a melting point of 174 to 175 °C.
In the case of `C[Si](C)(C)c1ccc2c(c1)C([Si](C)(C)C)([Si](C)(C)C)c1cc([Si](C)(C)C)ccc1-2`, the melting point lay in the range of 141 to 142 °C.
For `Cc1csc(-c2cc(C)cn2-c2ccc(S(N)(=O)=O)cc2)c1`, the melting point lay in the range of 172 to 173 °C.
To `CC(C)(C)C(O)Cn1ccnc1` (stereo not drawn) belongs 239 to 241 °C; to `Cc1oc(-c2ccco2)nc1COc1ccc(C#N)cn1`, 105 to 106 °C.
`O=C(O)[C@@H]1CCCN1C(=O)c1ccccc1` showed a melting point of 152 to 154 °C.
For `CC1(c2ccc(-c3ccc(F)cc3)cc2)CC(=O)NN1` (stereo not drawn), the melting point fell in the range of 194 to 196 °C.
In the case of `CC(O)(c1ccccc1)c1cc(C2CCCCC2)ccc1O` (stereo not drawn), the melting point came to 119 °C.
`CCN(CC)CCNCc1ccc(C(=O)Nc2nc(-c3ccccc3)c(-c3ccc(=O)n(C(C)C)n3)s2)cc1` showed a melting point of 158 to 160 °C.
On to `CCN(CC)CCCOc1ccc(C(=O)c2c(-c3ccc(OC)cc3)oc3ccccc23)cc1`, for which the melting point lay within 102 to 110 °C.
The figure for `Oc1ccc(-c2ccc(C=C(Br)Br)s2)cc1` is 99 to 101 °C.
Take `COc1ccccc(N(C)S(=O)(=O)c2ccc(C)cc2)c1=O`: the melting point came out at 94.5 °C.
As for `O=C(O)C[C@@]1(C[N+](=O)[O-])C[C@H]2CCC[C@H]21`, the melting point lay within 64 to 66 °C.
In turn, `C=CCN1CCN(c2ncc3c(=O)c(C(=O)OCC)cn(CC)c3n2)CC1` had a melting point of 131 °C.
`Cn1c(C(F)(F)F)c(-c2ccc(C[C@H](NC(=O)c3c(F)cccc3C(F)(F)F)C(=O)O)cc2)c(=O)n(C)c1=O` displayed a melting point of 122 to 125 °C.
The compound `CCOC(=O)CCCOc1ccc(C(N)=O)cc1` gave a melting point of 144 to 146 °C.
Regarding `Cn1c([N+](=O)[O-])cnc1COc1ccc(C#N)cc1`, the melting point worked out at 130 °C.
The figure for `CCCCCCCCCCNC(=O)c1cccc([N+](=O)[O-])c1` is 86 to 88 °C; for `CCCCN(C)C(=O)CSCCCCCCOc1ccc(C2=C(c3ccccc3)CCCc3cc(O)ccc32)cc1` it is 103 to 105 °C.
The compound `C=CC(=O)N1C(C)(C)CC(OC(=O)CCCC(C)(C)c2cc(OC)c(C(C)(C)CCCC(=O)OC3CC(C)(C)N(C(=O)C=C)C(C)(C)C3)cc2O)CC1(C)C` registered a melting point of 50 to 52 °C.
To `CN1CCN(C2=Nc3ccccc3N=C(c3ccccc3)C2)CC1` belongs 155 to 157 °C; to `CCCCCC(O)(c1cncnc1)C(C)(C)C` (stereo not drawn), 66 to 67 °C; to `NNC1=Nc2ccc(Br)cc2C(c2ccccn2)=NC1`, 218 to 228 °C.
For the compound `CC(CCl)=NNC1=Nc2ccc(Cl)cc2C(c2ccccc2)=NC1`, the melting point lay in the range of 210 to 227 °C.
Regarding `COc1ccc(Br)c2cc(C(=O)c3cccc(C(F)(F)F)c3)oc12`, the melting point lay in the range of 78 to 79 °C.
On to `CN1CCN(c2ccc3c(ccc4c(=O)cc(C(=O)Nc5ccc(N6CCOCC6)cc5)oc43)c2)CC1`, for which the melting point is 217 to 218 °C.
Regarding `CC(Cc1ccc(Oc2cc(N3CCN(Cc4ccccc4)CC3)ncn2)cc1)(Oc1ccccc1)C(=O)O` (stereo not drawn), the melting point lay in the range of 107 to 109 °C.
For the compound `COc1ccc(NC(=O)/C=C/c2ccc(C(C)(C)C)cc2)cc1OC`, the melting point is 115 to 116 °C.
In the case of `CC1CCC(NC(=O)NS(=O)(=O)c2ccc(CCNC(=O)N3CCCCC3=O)cc2)C1` (stereo not drawn), the melting point was in the range of 166 to 168 °C.
With `CC(C)(C)c1nc(C=NO)nc(C(C)(C)C)c1O`, the melting point was in the range of 205 to 220 °C.
